Values of other authors, collected in US20220249978A1, “NOVEL SOLVENT FOR EXTRACTING, SOLUBILISING AND/OR FORMULATING VOLATILE AND NON-VOLATILE COMPOUNDS OF INTEREST IN ANIMAL NUTRITION AND HEALTH, PREPARATION METHOD AND USES THEREOF” (ID4TECH, priority 2019, published 2022).

Key:
[1] = system: pro-inflammatory cytokines (IL-8 and TNF-α)
[2] = system: Candida strains; conditions: in vitro and in vivo
[3] = system: Bacillus anthracis; conditions: blocks its growth without killing the cells
[4] = system: Gram+ but also Gram− bacteria such as Staphylococcus, Streptococcus, Gardnerella, Haemophilus but also Listeria monocytogenes

## CCCCCCCCCCCC(=O)OCC(O)CO (stereo not shown) [glycerol monolaurate]
[1]
  quantity of pro-inflammatory cytokines (IL-8 and TNF-α): significant decrease
[2]
  growth of Candida strains: inhibits the growth
[3]
  action against Bacillus anthracis: bacteriostatic agent
[4]
  growth of Gram+ and Gram− bacteria: acts against the growth
